Test results reported in patent publication US5792745A, “Use of peptides for altering bone resorption” (La Jolla Cancer Research Center, priority 1995, dated 1998).
“Also recorded” adds a separate entry of the source. Where a SMILES comes first, the peptide text is derived from it. Bridges are numbered along the chain shown (N, C = ends). [ ]: non-standard residue; d: D form. Tic = O=C(O)[C@@H]1Cc2ccccc2CN1; Mpa = O=C(O)CCS

Columns and labels:
[1] = system: parathyroid hormone-induced hypercalcemia; assay: parathyroid hormone-induced hypercalcemia in mice; format: in vivo; conditions: parathyroidectomized mice, 4 hr peptide infusion, FIG. 9
[2] = target: T1, α5 β1 (FnR) (Homo sapiens, UniProt P05556+P08648); assay: α5 β1 ELISA (competitive); format: binding; conditions: comparison of ELISA values
T1 construct: Fibronectin receptor (FnR) was purified from 100 mM octyl-glucopyranoside-extracted human placenta; from tissue
Method: Peptide binding to purified human αv β5 and αv β3, which are VnR's, and to α5 β1, which is a FnR, was determined using competitive ELISA assays as described below. If desired, an αIIb β3 ELISA can be performed as described in W091/15515.
Peptide binding to purified human α5 β1 (FnR) also was determined using a competitive ELISA. In these assays, Fn was immobilized to the wells and the binding of solubilized FnR in the presence of various concentrations of a peptide analogue was determined using a mouse monoclonal antibody to human β1 (clone P4C10; Gibco) and specific binding was visualized using a second antibody.
Microtiter wells were coated at RT by adding 100 μl of 2 μg/ml human Fn in TBS and incubating the plates overnight at 4° C. Following incubation, the plates were washed 3× with TBS/"TWEEN 20" (polyoxyethylenesorbitan monolaurate). RGD peptides were diluted in TBS containing 20 mM OG and 2 mM MnCl2 and 50 μl was added to wells at 10-fold serial dilutions. FnR was diluted in the same buffer and 50 μl was added to each well.
The plates were incubated for 3 hr at RT and washed with 300 μl TBS/"TWEEN 20" (polyoxyethylenesorbitan monolaurate). Bound receptor was incubated with 100 μl of the monoclonal anti-β1 antibody for 2 hr, then washed 3× with TBS/"TWEEN 20" (polyoxyethylenesorbitan monolaurate). […] The amount of bound second antibody was determined as described above. […]

[3] = system: integrin receptors / osteoclasts; assay: series of assays of Examples II and III for potency and selectivity (summary); conditions: for activity of minimal-element peptides (in words): FIG. 2
Text: Peptides of the RGDNTic (SEQ ID NO: 31) pharmacophore group are characterized, in general, as having increased potency, whereas the peptides of the pharmacophore RGDDV (SEQ ID NO: 1) group generally have higher receptor selectivity. […] As used herein, the term "potency" or "potent" means that a peptide of the invention is active at a relatively low concentration in the assays described in Examples II and III. A potent peptide of the invention can be identified, for example, using the assays described in Examples II and III.
The present invention also provides a series of in vitro and in vivo assays useful for screening a panel of peptides in order to identify peptides that can reduce or inhibit bone resorption or that can alter integrin binding such as αv β3 integrin receptor-mediated binding. Such peptides can include, for example, peptides within the pharmacophore groups exemplified herein or peptides within other pharmacophore groups. The series of assays disclosed herein is particularly useful for determining the selectivity and potency of a peptide for reducing or inhibiting bone resorption. The selectivity of a peptide for an integrin receptor involved in osteoclast binding to bone can be determined, for example, using the integrin receptor assays and cell attachment and detachment assays described herein. Use of cell-based assays in conjunction with receptor-based assays is informative because the receptor ELISAs provide useful information regarding the binding characteristics of a particular peptide toward a particular integrin and because the cell-based assays confirm that those characteristics are relevant to the αv β3 receptor or to bone resorption.

[4] = target: T2, αv β3 receptor (Homo sapiens, UniProt P05106+P06756); assay: αv β3 ELISA (competitive); format: binding; conditions: ELISA / JY cell IC50 values of FIG. 2 compared
T2 construct: The αv β3 receptor was purified from octyl-glucopyranoside-extracted human placenta; from tissue
Method: Peptide binding to purified αv β3 receptor was determined by using a competitive ELISA, in which αv β3 receptor was immobilized and the binding of solubilized VN, in the presence of various concentrations of peptide analogue, was detected using a monoclonal mouse IgG anti-VN antibody and a labelled anti-mouse IgG conjugate.
50 μl of Vn in the same buffer then was added to each well.
The development process was stopped by adding 50 μl to 4N H2 SO4 to each well. The plates were read at 490 nm and the data analyzed by four parameter fit.

[5] = system: chick osteoclasts; assay: chick cell detachment assay (osteoclasts vs total cells); format: cell-based; conditions: FIG. 5
[6] = system: rat osteoclasts; assay: rat osteoclast attachment assay compared with MG63 / NRK cell attachment; format: cell-based; conditions: FIGS. 7 and 8 compared
Method: 3. Rat osteoclast attachment assay
To determine the effect of a peptide on the attachment of rat osteoclasts in vitro, 100 μl aliquots of the rat pup bone cell suspension described in Example II.B.2., above, were added in triplicate to 96 well MAXISORP plates coated with specific substrates or with FCS. Substrate coated plates were used to determine the ability of peptides to inhibit attachment or induce detachment of an osteoclast from a ligand such as vitronectin, fibronectin, osteopontin or collagen I (Collaborative Research), which are ligands present in bone. Substrates were added to 96 well plates (50 μl of a 5-10 μg/ml solution in sodium carbonate, pH 9.5) and incubated for 2 hr at 37° C. For FCS control wells, 100 μl 10% FCS was added. Wells were aspirated, then washed 2× with PBS and blocked with 1% bovine serum albumin in PBS for 2 hr at 37° C. Wells were aspirated and washed again 2× with PBS. Cells were seeded in duplicate at 4×10^4 cells/well. […]
Following incubation, the medium and nonadherent cells were removed by aspiration from each well. […] Adherent osteoclasts were counted by light microscopy. […]
MG63 and NRK cell lines were purchased from ATTC (Rockville, Md.). […] Following staining, the stain was extracted with 20% acetic acid and the OD562 of the extracted stain was determined. […]
Selectivity of a peptide can be determined by comparing the results of FIGS. 7 and 8 (see, also FIG. 2).

[7] = system: osteoclasts; conditions: cited from earlier work
[8] = system: bone resorption; conditions: cited from earlier work
[9] = system: neointimal hyperplasia; conditions: rabbit, in vivo; cited from earlier work

## CC(C)[C@@H]1NC(=O)[C@H](CC(=O)O)NC(=O)[C@H](CC(=O)O)NC(=O)CNC(=O)[C@H](CCCNC(=N)N)NC(=O)CCSSC[C@@H](C(N)=O)NC1=O [compound 191] ([Mpa]RGDDVC-NH2; disulfide 1-7)
[1]
  PTH-induced change in serum ionized calcium: decreased the PTH-induced rise in serum ionized calcium in a dose responsive manner

## C[C@@H]1NC(=O)[C@H](CCCNC(=N)N)NC(=O)CNC(=O)CC[C@@H](C(N)=O)NC(=O)[C@@H]2CCCN2C(=O)[C@H](CC(N)=O)NC(=O)[C@H](CC(=O)O)NC(=O)CNC(=O)[C@H](CCCNC(=N)N)NC1=O [compound 390] (GRARGDNPE-NH2; lactam N-9)
[2]
  receptor selectivity for α5 β1 versus αv β5: more selective toward α5 β1 than toward αv β5

## CC(=O)N[C@H]1CSSC[C@@H](C(N)=O)NC(=O)[C@@H]2Cc3ccccc3CN2C(=O)[C@H](CO)NC(=O)[C@H](CC(=O)O)NC(=O)CNC(=O)[C@H](CCCNC(=N)N)NC1=O [compound 812, Ac-CRGDS(Tic)C-NH2] (Ac-CRGDS[Tic]C-NH2; disulfide 1-7)
[3]
  activity of minimal-element peptides (in words): demonstrate activity

## N=C(N)NCCC[C@@H]1NC(=O)CC[C@@H](C(N)=O)NC(=O)[C@@H]2CCCN2C(=O)[C@H](CO)NC(=O)[C@H](CC(=O)O)NC(=O)CNC1=O [compound 825] (RGDSPE-NH2; lactam N-6)
[2]
  receptor selectivity for α5 β1 versus αv β5: more selective toward α5 β1 than toward αv β5

## CC(C)[C@@H]1NC(=O)[C@H](CC(=O)O)NC(=O)[C@H](CC(=O)O)NC(=O)CNC(=O)[C@H](CCCNC(=N)N)NC(=O)CNC(=O)C[C@@H](C(N)=O)NC1=O [peptide 368] (GRGDDVD-NH2; lactam N-7)
[4]
  receptor selectivity for αv β3 versus αv β5 and α5 β1 (comparison of IC50 values): receptor selective for αv β3; also recorded: selective peptide
[3]
  both potent and selective (summary classification): both potent and selective
  receptor selectivity (summary classification): particularly receptor selective

## CC(C)[C@@H]1NC(=O)[C@H](CC(=O)O)NC(=O)[C@H](CC(=O)O)NC(=O)CNC(=O)[C@H](CCCNC(=N)N)NC(=O)CC[C@@H](C(N)=O)NC1=O [peptide 386, RGDDVE-NH2] (RGDDVE-NH2; lactam N-6)
[5]
  selective detachment of osteoclasts versus other cell types: caused selective detachment of osteoclasts as compared to other cell types
[6]
  selectivity: osteoclast attachment versus MG63 or NRK attachment: selective
[1]
  PTH-induced change in serum ionized calcium: relatively low level of serum calcium
[3]
  activity of minimal-element peptides (in words): demonstrate activity

## Echistatin
[7]
  binding to osteoclasts (literature): binds to osteoclasts in a nonselective manner
[7]; in vitro
  inhibition of bone resorption in vitro (literature): inhibits bone resorption in vitro
[8]
  inhibition of bone resorption in vivo (literature): inhibits bone resorption

## G(Pen)GRGDSPCA
[9]
  inhibition of neointimal hyperplasia (literature): can inhibit neointimal hyperplasia
